Data: patent US20240083883A1, “RAD51 BINDING INHIBITORS AND METHODS OF USE THEREOF” (Sarissa Inc., priority 2020, published 2024)
“And” between values parts separate entries of the source, which are not always exact repeats. Identical values can stand only once. Like-named read-outs stand apart in the source and are kept apart here. One block for each compound: values may come before it.

Columns and labels:
[1] = tested on: normal cells; test: Toxicity on normal cells (summary of the normal cell line surrogates); type: cell-based, human; conditions: normal cell surrogates HEK293, CCD841, HK-2, read-out: toxicity (IC50) on normal cells, approximate
Experimental: (§1) Proliferation assays: Cells are maintained in minimum essential medium alpha plus 10% fetal bovine serum and penicillin (50 units/mL)/streptomycin (50 mg/L) (growth medium). Cultures are incubated in a humidified atmosphere of 5% CO2 at 37° C. Rapidly proliferating cells are used to establish cultures of experimental cells, which are allowed to adhere overnight in 96-well plates or 25-cm^2 flasks prior to manipulation.
(§2) Exposure to chemotherapy drugs and combinations thereof: Cells are grown in 96-well plates and treated with simultaneous exposure to a single drug or a combination of two drugs at the concentrations indicated. The relative cell density is determined after 4 days by viability staining (alamarBlue© or neutral red).
(§3) The relative density of cells treated with two agents is normalized to the density observed for a respectively treated “second agent” control. The concentration of drug that inhibits proliferation by 50% (IC50 value) is interpolated from plotted data. The change in the IC50 value of a chemotherapy drug caused by the presence of the second agent is determined as a percent of the IC50 of the first drug alone. Enhancement of cytotoxicity is indicated by a decrease in the IC50 value. This methodology, previously reported (Ferguson et al., 2009; Blake et al., 2017; Ferguson et al., 2018), provides a quantitative, concentration-dependent representation of the magnitude of the drug interaction.
FIG. 23 graphically depicts the toxicity effect on normal (not fully tumorigenic) cell line surrogates resulting from exposure to JKYN-1 (base). The cell line surrogates include: HEK293 (human embryonic kidney transformed with adenovirus 5 DNA); CCD841 (human embryonic colonic epithelial, untransformed); and HK-2 (human kidney proximal tubule, papilloma).

[2] = tested on: CCD841; test: Proliferation assay, normal cell line surrogate CCD841; type: cell-based, human; conditions: CCD841, single agent, 4 days
Experimental: as §1, §2
(§4) The relative density of cells treated with two agents is normalized to the density observed for a respectively treated “second agent” control. The concentration of drug that inhibits proliferation by 50% (IC50 value) is interpolated from plotted data. The change in the IC50 value of a chemotherapy drug caused by the presence of the second agent is determined as a percent of the IC50 of the first drug alone. […] This methodology, previously reported (Ferguson et al., 2009; Blake et al., 2017; Ferguson et al., 2018), provides a quantitative, concentration-dependent representation of the magnitude of the drug interaction. […]

[3] = Solubility comparison of RAD51 inhibitors; type: physicochemical; conditions: for appearance of the 1 mM solution in H2O/DMSO: 1 mM in H2O/DMSO
Experimental: A comparison of the solubility of selected compounds of the present invention with known RAD51 inhibitors was carried out.
Aqueous samples of the mesylate salt were readily prepared and were suitable for testing in inhibition assays. Exemplary solutions were prepared as follows:
soluble in water−1.0 mg JKYN-1-mes+75.9 μl of water=20 mM (13.2 mg/ml)
Exemplary solutions were prepared as follows:
IBR2 was soluble in DMSO to at least 166.8 mM (66.7 mg/ml). Exemplary solutions were prepared as follows:
IBR120 is soluble in DMSO to at least 20 mM (7.77 mg/ml).

[4] = tested on: pancreatic cancer cell line (PANC-1); test: Proliferation assay, PANC-1; type: cell-based; conditions: for inhibition of proliferation compared with IBR120: range of concentrations
Experimental: as §1, §2, §3

[5] = tested on: NSCLC cell line A549b; test: Proliferation assay, A549b; type: cell-based; conditions: for inhibition of proliferation compared with IBR120: range of concentrations
Experimental: as §1, §2, §3

[6] = tested on: HEK293; test: Proliferation assay, normal cell line surrogate HEK293; type: cell-based, human; conditions: HEK293, single agent, 4 days
Experimental: as §1, §2, §4

[7] = tested on: HK-2; test: Proliferation assay, normal cell line surrogate HK-2; type: cell-based, human; conditions: HK-2, single agent, 4 days
Experimental: as §1, §2, §4

[8] = background section; cited from earlier work
[9] = tested on: most tested cancer cell lines; conditions: cited from earlier work
[10] = tested on: DU145 prostate carcinoma cell line; test: Proliferation assay, DU145; type: cell-based
Experimental: as §1, §2
(§5) The relative density of cells treated with two agents is normalized to the density observed for a respectively treated “second agent” control. The concentration of drug that inhibits proliferation by 50% (IC50 value) is interpolated from plotted data. The change in the IC50 value of a chemotherapy drug caused by the presence of the second agent is determined as a percent of the IC50 of the first drug alone. […] This methodology, previously reported (Ferguson et al., 2009; Blake et al., 2017; Ferguson et al., 2018), provides a quantitative, concentration-dependent representation of the magnitude of the drug interaction.

[11] = tested on: MDA-MB-231; test: Proliferation assay, MDA-MB-231; type: cell-based; conditions: Homo sapiens; MDA-MB-231, single agent
Experimental: as §1, §2, §5

[12] = tested on: NSCLC cell line H1650; test: Proliferation assay, NSCLC cell line H1650; type: cell-based
Experimental: as §1, §2, §3

[13] = tested on: N87 stomach carcinoma cell line; test: Proliferation assay, N87; type: cell-based
Experimental: as §1, §2, §3

[14] = tested on: MCF-7 breast carcinoma cell line; test: Proliferation assay, MCF-7; type: cell-based
Experimental: as §1, §2, §3

[15] = tested on: prostate carcinoma cell line LNCaP; test: Proliferation assay, LNCaP; type: cell-based
Experimental: as §1, §2, §3

solubility in water at 10 mg/ml [3]: not very soluble in water
appearance of the 1 mM solution in H2O/DMSO [3]: less cloudy than 1 mM IBR120
Structure (SMILES): CN1CCN(c2ccc(-c3ccc4c(c3)[C@H](c3c[nH]c5ccccc35)N(S(=O)(=O)Cc3ccccc3)C4)cc2)CC1 [Compound 1, (R)-3-(2-(Benzylsulfonyl)-6-(4-(4-methylpiperazin-1-yl)phenyl)isoindolin-1-yl)-1H-indole]
IC50 ([1]; listed as JKYN-1): 4 to 6 µM
IC50 ([2]; Homo sapiens, CCD-841, 96 h): 5.71 µM
inhibition of proliferation compared with IBR120 ([4]; PANC-1, single agent): superior activity
inhibition of proliferation compared with IBR120 ([5]; single agent): superior activity
IC50 ([6]; Homo sapiens, HEK293, 96 h): 4.16 µM
IC50 ([7]; Homo sapiens, HK-2, 96 h): 3.92 µM

appearance of the 1 mM solution in H2O/DMSO [3]: slightly cloudy
solubility in DMSO [3]: at least 166.8 mM and ≥ 66.7 mg/ml
upper limit of solubility in H2O/DMSO ([3]; H2O/DMSO): ~1000 µM
appearance of the 1 mM H2O/DMSO solution diluted 1:10 or more in water [3]: clear
solubility in water ([3]; water): insoluble in water
Structure (SMILES): O=S(=O)(Cc1ccccc1)N1C=Cc2ccccc2C1c1c[nH]c2ccccc12 (centres unmarked) [IBR2]
aqueous solubility (background statement) [8]: low aqueous solubility
IC50 [9]: 12 to 20 µM

appearance of the 1 mM solution in H2O/DMSO [3]: a little bit cloudy
solution of 25 mg/ml in 100% DMSO ([3]; 25 mg/ml, 100% DMSO): dissolves well
solubility in DMSO [3]: at least 20 mM and ≥ 7.77 mg/ml
appearance of the 1 mM H2O/DMSO solution diluted 1:10 or more in water [3]: clear
solubility in water ([3]; water): insoluble in water
Structure (SMILES): O=S(=O)(Cc1ccccc1)N1Cc2ccccc2[C@@H]1c1c[nH]c2ccccc12 [IBR120]
aqueous solubility (background statement) [8]: low aqueous solubility

IC50 [11]: 5.66 ± 0.36 µM
solubility in water [3]: highly soluble in water
solubility ([3]; water, thermodynamic from solid): ≥ 13200 µg/mL and ≥ 20000 µM
decrease of the IC50 value of osimertinib ([12]; H1650, combination with osimertinib): up to 75%
IC50 ([12]; H1650, single agent, Mesylate Salt, read-out: IC50): ≥ 4 µM
IC50 ([12]; Homo sapiens, NCI-H1650, H1650, 6 μM osimertinib, read-out: IC50 of JKYN-1-mesylate in the presence of osimertinib): ~2 µM
IC50 ([12]; Homo sapiens, NCI-H1650, H1650, single agent, read-out: IC50): 3.95 µM
IC50 ([4]; Homo sapiens, PANC-1, single agent): 4.69 ± 1.14 µM
IC50 ([5]; single agent): 3.96 ± 0.44 µM
decrease of the IC50 value of regorafenib ([13]; N87, combination with regorafenib): up to 54%
IC50 ([13]; N87, single agent): 2.21 ± 1.13 µM
IC50 ([14]; Homo sapiens, MCF7, MCF-7, about 5 μM (or more) 4-OH-tamoxifen, read-out: IC50 of JKYN-1-mesylate in the presence of 4-OH-tamoxifen): ≤ 1.5 µM
IC50 ([14]; Homo sapiens, MCF7, MCF-7, single agent, read-out: IC50): 4.36 ± 0.42 µM
decrease of the IC50 value of 4-OH-tamoxifen ([14]; MCF-7, combination with 4-OH-tamoxifen): up to 80%
IC50 ([14]; MCF-7, single agent, Mesylate Salt, read-out: IC50): 4 to 5 µM
IC50 ([15]; Homo sapiens, single agent): 3.36 ± 0.37 µM
decrease of the IC50 value of enzalutamide ([15]; combination with enzalutamide): up to 30%
Structure (SMILES): CN1CCN(c2ccc(-c3ccc4c(c3)[C@H](c3c[nH]c5ccccc35)N(S(=O)(=O)Cc3ccccc3)C4)cc2)CC1.CS(=O)(=O)O [JKYN-1-mesylate, (R)-3-(2-(Benzylsulfonyl)-6-(4-(4-methylpiperazin-1-yl)phenyl)isoindolin-1-yl)-1H-indole, Mesylate Salt]
effect on inhibition by enzalutamide ([10]; DU145, combination with enzalutamide): enhanced enzalutamide toxicity
combination effect with enzalutamide ([10]; DU145, range of concentrations): synergistic effect
IC50 ([1]; Homo sapiens): 3 to 4 µM
IC50 ([1]; Mesylate Salt): 3 to 4 µM
IC50 ([2]; Mesylate Salt): 3.68 µM
combination effect with osimertinib ([12]; H1650, range of concentrations): synergistic effect
combination effect with afatinib ([4]; PANC-1, combination with afatinib): positive (synergistic) effect
inhibition of proliferation compared with IBR120 ([4]; PANC-1, single agent): superior activity
effect on inhibition by regorafenib ([5]; combination with regorafenib): potentiates regorafenib
inhibition of proliferation compared with IBR120 ([5]; single agent): superior activity
IC50 ([6]; Mesylate Salt): 2.89 µM
combination effect with regorafenib ([13]; N87): synergistic effect
combination effect with 4-OH-tamoxifen ([14]; MCF-7, range of concentrations): synergistic effect
IC50 ([7]; Mesylate Salt): 3.42 µM
combination effect with enzalutamide ([15]; range of concentrations): synergistic effect
